Holding throughout (test): KinomeScan profiling
Format in all cases: binding

The target in experiment [1] is T1, JNK3 (Homo sapiens, UniProt P53779).
T1 construct: purchased KinomeScan®
To be noted: JNK3, 1 μM; read-out: % control. The essentials:
(§1)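 Percent-of-control values derive from RLU, calculated as (test − positive)/(negative − positive) × 100, where DMSO defines 100% and a positive control compound defines 0%. Each compound was tested at 1 μM in the 468-kinase panel; sub-35% readings indicate activity.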

Experiment [2] deals with T2, EPHB3 (Homo sapiens, UniProt P54753).
T2 sequence (P54753 34-998): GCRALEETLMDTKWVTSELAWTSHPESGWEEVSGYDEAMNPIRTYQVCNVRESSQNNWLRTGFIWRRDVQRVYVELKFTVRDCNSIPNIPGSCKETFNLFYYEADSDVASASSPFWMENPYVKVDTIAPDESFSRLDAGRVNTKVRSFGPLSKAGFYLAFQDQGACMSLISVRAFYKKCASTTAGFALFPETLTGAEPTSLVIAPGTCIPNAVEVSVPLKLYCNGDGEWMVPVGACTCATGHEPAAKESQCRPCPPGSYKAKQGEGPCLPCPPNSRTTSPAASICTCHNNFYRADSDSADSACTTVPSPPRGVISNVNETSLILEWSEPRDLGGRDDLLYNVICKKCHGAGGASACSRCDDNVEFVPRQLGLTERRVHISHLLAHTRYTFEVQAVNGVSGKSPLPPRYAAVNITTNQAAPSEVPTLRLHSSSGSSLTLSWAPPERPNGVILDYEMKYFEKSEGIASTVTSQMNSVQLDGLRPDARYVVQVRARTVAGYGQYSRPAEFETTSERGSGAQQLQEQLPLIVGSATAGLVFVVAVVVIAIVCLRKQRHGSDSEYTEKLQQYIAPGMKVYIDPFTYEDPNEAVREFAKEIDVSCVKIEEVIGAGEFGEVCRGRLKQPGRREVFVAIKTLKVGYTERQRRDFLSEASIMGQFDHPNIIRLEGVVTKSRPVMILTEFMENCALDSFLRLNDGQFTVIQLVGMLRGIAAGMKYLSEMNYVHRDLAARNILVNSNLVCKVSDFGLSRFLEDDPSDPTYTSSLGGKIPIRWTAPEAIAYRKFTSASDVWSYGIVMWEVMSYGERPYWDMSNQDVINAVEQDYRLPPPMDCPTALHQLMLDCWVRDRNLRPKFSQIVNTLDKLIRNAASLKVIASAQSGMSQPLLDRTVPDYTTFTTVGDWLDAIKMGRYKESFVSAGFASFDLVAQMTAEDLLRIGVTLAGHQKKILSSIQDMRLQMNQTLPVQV
Particulars: EPHB3, 1 μM; read-out: % control. The procedure, abridged:
as §1

For experiment [3], the target named is T3, ULK1 (Homo sapiens, UniProt O75385).
T3 sequence (O75385 1-1050): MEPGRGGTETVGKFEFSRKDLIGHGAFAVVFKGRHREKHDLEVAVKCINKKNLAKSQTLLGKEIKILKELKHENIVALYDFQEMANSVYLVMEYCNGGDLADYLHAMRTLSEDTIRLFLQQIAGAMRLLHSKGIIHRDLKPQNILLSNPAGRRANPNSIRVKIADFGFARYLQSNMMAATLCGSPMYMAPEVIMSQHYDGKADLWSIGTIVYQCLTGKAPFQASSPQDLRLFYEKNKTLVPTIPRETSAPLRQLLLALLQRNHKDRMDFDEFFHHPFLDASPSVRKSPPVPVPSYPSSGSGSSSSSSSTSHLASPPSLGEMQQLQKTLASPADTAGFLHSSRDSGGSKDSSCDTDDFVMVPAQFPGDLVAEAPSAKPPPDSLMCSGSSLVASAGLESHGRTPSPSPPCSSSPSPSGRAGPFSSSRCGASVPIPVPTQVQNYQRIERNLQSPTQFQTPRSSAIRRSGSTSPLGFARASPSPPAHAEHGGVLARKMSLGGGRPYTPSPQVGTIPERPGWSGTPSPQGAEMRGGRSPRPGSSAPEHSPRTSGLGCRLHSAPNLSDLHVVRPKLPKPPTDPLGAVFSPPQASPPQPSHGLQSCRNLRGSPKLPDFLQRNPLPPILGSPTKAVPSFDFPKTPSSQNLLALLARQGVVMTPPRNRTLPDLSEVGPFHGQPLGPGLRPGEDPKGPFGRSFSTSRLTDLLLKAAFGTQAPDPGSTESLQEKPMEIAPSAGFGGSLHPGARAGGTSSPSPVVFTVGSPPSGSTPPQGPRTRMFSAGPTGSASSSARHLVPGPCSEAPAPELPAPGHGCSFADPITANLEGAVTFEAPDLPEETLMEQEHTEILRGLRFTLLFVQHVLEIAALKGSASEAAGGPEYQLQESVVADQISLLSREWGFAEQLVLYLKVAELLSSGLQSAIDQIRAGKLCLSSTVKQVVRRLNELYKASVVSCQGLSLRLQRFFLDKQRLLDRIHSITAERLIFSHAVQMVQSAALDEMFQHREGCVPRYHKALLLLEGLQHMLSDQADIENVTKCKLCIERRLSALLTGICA
Particulars: ULK1, 1 μM; read-out: % control. The procedure, abridged:
as §1

For experiment [4], the target named is ERK1 (Homo sapiens, UniProt P27361). Particulars: ERK1, 1 μM; read-out: % control. The essentials: as §1
Sequence of ERK1 (P27361 whole entry): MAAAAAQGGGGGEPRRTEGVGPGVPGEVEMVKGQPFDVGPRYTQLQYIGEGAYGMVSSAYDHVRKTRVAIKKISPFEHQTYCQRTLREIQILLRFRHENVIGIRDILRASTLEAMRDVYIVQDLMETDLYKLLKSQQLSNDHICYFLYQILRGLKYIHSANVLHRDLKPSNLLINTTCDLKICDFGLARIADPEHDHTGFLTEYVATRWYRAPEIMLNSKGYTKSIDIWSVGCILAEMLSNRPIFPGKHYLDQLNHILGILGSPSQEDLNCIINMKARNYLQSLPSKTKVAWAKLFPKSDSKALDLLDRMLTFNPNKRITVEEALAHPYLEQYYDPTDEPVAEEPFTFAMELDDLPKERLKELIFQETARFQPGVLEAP
The target of experiment [5] is T4, ADCK3 (Homo sapiens, UniProt Q8NI60).
T4 construct: purchased KinomeScan®
T4 sequence (Q8NI60 163-647): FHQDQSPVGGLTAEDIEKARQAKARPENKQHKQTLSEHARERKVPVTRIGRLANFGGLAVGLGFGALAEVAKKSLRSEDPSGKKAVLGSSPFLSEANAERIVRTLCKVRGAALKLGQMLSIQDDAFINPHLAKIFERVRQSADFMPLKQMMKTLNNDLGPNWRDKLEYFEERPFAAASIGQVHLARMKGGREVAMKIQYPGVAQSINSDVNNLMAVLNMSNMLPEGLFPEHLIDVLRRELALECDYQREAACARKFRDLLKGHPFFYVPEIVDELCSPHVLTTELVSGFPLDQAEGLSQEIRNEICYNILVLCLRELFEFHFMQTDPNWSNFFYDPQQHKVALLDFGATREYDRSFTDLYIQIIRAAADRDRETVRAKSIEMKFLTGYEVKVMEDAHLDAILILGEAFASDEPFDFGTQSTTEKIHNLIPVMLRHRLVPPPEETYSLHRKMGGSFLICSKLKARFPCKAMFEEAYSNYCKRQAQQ
To be noted: ADCK3, 1 μM; read-out: % control. The procedure, abridged: as §1

Each structure is given as a SMILES string.

T1 sequence (P53779 whole entry): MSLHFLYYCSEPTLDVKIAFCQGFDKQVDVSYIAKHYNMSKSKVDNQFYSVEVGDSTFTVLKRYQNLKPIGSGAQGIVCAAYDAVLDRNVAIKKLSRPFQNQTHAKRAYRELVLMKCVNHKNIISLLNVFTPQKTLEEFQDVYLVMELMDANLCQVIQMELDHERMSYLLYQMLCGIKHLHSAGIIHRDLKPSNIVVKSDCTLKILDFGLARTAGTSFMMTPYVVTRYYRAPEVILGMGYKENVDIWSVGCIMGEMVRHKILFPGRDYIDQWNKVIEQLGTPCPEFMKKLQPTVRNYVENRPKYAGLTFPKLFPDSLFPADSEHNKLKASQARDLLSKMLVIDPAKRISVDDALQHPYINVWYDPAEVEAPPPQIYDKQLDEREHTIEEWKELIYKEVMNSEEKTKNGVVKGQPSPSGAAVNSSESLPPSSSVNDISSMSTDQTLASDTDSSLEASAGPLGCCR

For `CNc1c(-c2cnn([C@H]3CCN(C(C)=O)C[C@@H]3F)c2)cnc2[nH]cc(Cl)c12` [Compound 77, 1-((3S,4S)-4-(4-(3-chloro-4-(methylamino)-1H-pyrrolo[2,3-b]pyridin-5-yl)-1H-pyrazol-1-yl)-3-fluoropiperidin-1-yl)ethan-1-one], the remaining binding at 1 µM worked out at 1.9% in experiment [1]; 100% in experiment [2]; 3.1% in experiment [3]; 100% in experiment [4]; 100% in experiment [5].
Consider `CNc1c(-c2ccc(C(=O)N3CCC(N4CCOCC4)CC3)cc2)cnc2[nH]cc(Cl)c12` [Compound 96, (4-(3-chloro-4-(methylamino)-1H-pyrrolo[2,3-b]pyridin-5-yl)phenyl)(4-morpholinopiperidin-1-yl)methanone], for which the remaining binding at 1 µM in experiment [1] was 0.35%; in experiment [2], 100%; in experiment [3], 3.8%; in experiment [4] it was 100%; in experiment [5], 100%.
In the case of `O=C(c1ccc(-c2cnc3[nH]cc(Cl)c3c2NC2CCCC2)cc1)N1CCC(N2CCOCC2)CC1` [Compound 101, (4-(3-chloro-4-(cyclopentylamino)-1H-pyrrolo[2,3-b]pyridin-5-yl)phenyl)(4-morpholinopiperidin-1-yl)methanone], the remaining binding at 1 µM in experiment [1] worked out at 7.6%; in experiment [2], 79%; in experiment [3], 73%; in experiment [4], 98%; in experiment [5], 68%.

For the origin of these results see patent US12275731B2, “Azaindole inhibitors of wild-type and mutant forms of LRRK2” (DANA-FARBER CANCER INSTITUTE, INC., priority 2018, dated 2025).
